# Assay results as given in patent US8986667B2, “Cosmetic composition with skin tightening effect” (LVMH Recherche, priority 2001, dated 2015).
# Test system: human skin
# Assay: Kinetics of penetration of caffeine through thawed human skin mounted on Franz cells
# Type: in vitro ADME
# Settings: receptor liquid
# Description: This study is made, in vitro, on human skin, which is kept beforehand by freezing, with the aim of evaluating the influence of the mixture according to the invention on the penetration and the distribution of caffeine within the skin beds. The occlusive properties of a gel according to the invention lead the research of an eventual patch effect. This study is made in comparison with a Carbopol gel.
# The principle of the study is based on the evaluation of the diffusion of an active principle through the thawed human skin which is mounted on Franz cells.
# These cells are constituted of two glass elements which delimit an upper partition and a lower partition, and they have an exposed surface area of […]. The skin is placed between these two elements, stratum corneum to the top. The active principle deposited on the skin crosses it and is collected in the lower partition, dissolved in a solution which is known as the receptor solution and which is constituted of a phosphate buffer+Na nitride (0.1%) mixture. […]
# The kinetics of penetration, in μg/cm^2 per unit time, is expressed as a function of the interval of confidence, the IC95%, wherein the residual standard deviation is calculated by the ANOVA method over the whole of the tests. […]
structure (smiles),measurement,value
Cn1c(=O)c2c(ncn2C)n(C)c1=O [caffeine],maximum concentration of caffeine collected during the study,less than 23 μg/mL
